{
  "source": "paper PMC6116501",
  "about": "“Improved secretory expression of lignocellulolytic enzymes in Kluyveromyces marxianus by promoter and signal sequence engineering” (Biotechnology for Biofuels, 2018)",
  "target": "T1, Est1E (uncultured bacterium, UniProt A0A345Z1H0)",
  "T1 construct": "3 extra residues kept; no His tag; 29 kDa theoretical; purified by ion exchange and gel filtration",
  "T1 sequence (A0A345Z1H0 1-248)": "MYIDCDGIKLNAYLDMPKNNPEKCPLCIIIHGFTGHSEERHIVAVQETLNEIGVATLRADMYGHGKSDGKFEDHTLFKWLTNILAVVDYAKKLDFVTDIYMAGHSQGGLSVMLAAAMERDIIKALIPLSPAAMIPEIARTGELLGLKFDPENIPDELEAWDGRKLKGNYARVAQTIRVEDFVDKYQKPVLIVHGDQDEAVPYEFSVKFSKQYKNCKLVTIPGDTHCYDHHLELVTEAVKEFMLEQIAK",
  "assay": "absorbance at […] nm of released 2-chloro-4-nitrophenol",
  "format": "biochemical",
  "settings": "about […] substrate in PBST pH […] °C, […] min (assay as described for culture supernatant; also run on purified enzyme)",
  "data": [
    {"smiles": "COc1cc(/C=C/C(=O)Oc2ccc([N+](=O)[O-])cc2Cl)ccc1O", "note": "[CNPF, 2-chloro-4-nitrophenyl ferulate]", "values": [
      {"measurement": "absorbance at 410 nm of released 2-chloro-4-nitrophenol", "result": "The activity of Est1E in the supernatant was measured by means of 2-chloro-4-nitrophenyl ferulate (CNPF)"}
    ]}
  ]
}
